How the values were obtained:
[1] = Acute toxicity, single intramuscular dose; type: in vivo, white outbred male mice; details: single-dose administration, dose exceeding the recommended therapeutic dose more than 100 times
Description: Total toxicity of N-isovaleroyl-L-glutamyl-L-tryptophan was studied in accordance with the requirements of The Handbook of the Experimental (non-clinical) Studies of Novel Pharmaceutical Substances (2000): single dose acute toxicity and sub-acute and chronic toxicity during long-term administration of the dipeptide.
Acute toxicity testing was conducted on 60 white outbred male mice with 20 - 23 g body weights. The animals were divided into 6 equal groups. Single intramuscular doses of the medication were administered to the animals in the amount of 0.1 ml in the following doses: 1 mg/kg, 5 mg/kg, 10 mg/kg, and 20 mg/kg in sterile 0.9 % NaCl solution. The animals in the control group were receiving the same amounts of 0.9 % NaCl solution.

[2] = system: indomethacin-induced ulcers; assay: Indomethacin-induced ulcer model, therapeutic treatment: healing of gastric lesions; type: in vivo, male Wistar rats; parameters: key to GA1 (gastroprotective activity calculated for number of lesions): GA1 = PI of control group / PI of experimental group; key to GA2 (gastroprotective activity calculated for lesion size): GA2 = UI of control group / UI of experimental group; key to Ulcer Index: UI = average lesion area in group × % animals with lesions / 100; Lesion Size: unit not given here
[3] = system: stress-induced gastric ulcers; assay: Water-immersion stress model: gastric lesions, preventive treatment; type: in vivo, male Wistar rats; details: 200 mg/kg + stress
Description: (§1) All studies were conducted on male Wistar rats weighing 220 ± 20 g, obtained from Rappolovo nursery (Leningrad oblast). For 14 days prior to the experiment, the animals were held in isolation. The animals were handled in accordance with the European Convention for the Protection of Vertebrate Animals used for Experimental and Other Scientific Purposes (Strasburg, 1986). The animals were held in standard plastic cages and fed a standard diet of PK120-3 (granulated feed in accordance with order # 1179 M3 USSR 10/10/1983) with a free access to water.
In each series, the animals were divided into experimental and control groups with 10 rats per group. The animals in the experimental groups were orally administered the claimed preparation or a comparator drug, and the control group animals received distilled water in the same amount.
The experimental animals were divided into 5 groups, 10 animals each. The animals received the following therapy: • control group received distilled water per os; • experimental group 1 received 0.1 mkg/kg N-isovaleroyl-L-glutamyl-L-tryptophan; • experimental group 2 received 10 mkg/kg N-isovaleroyl-L-glutamyl-L-tryptophan; […]; • experimental group 4 received 50 mkg/kg of the comparator drug Misoprostol;
The experiment was conducted as follows: • The proposed drug, comparator drugs, and distilled water were administered once daily over 7 days, and on the day of the ulcerogenic stress induction one hour prior to the stress.
The rats deprived of food for 18 hrs. were placed into special cases and immersed in water vertically to the level of their xyphoids. The animals were held in this position for 5 hrs. at 23° C water temperature. After that, the animals were removed from the experiment.
(§2) Animals' body weight changes were monitored throughout the experiment. The experimental animals were then sacrificed by decapitation, and their blood was collected in test tubes. The stomachs were extracted, dissected along the major curve, rinsed with cold saline solution, and the mucosa was carefully examined through a magnifying glass under bright lights. The mucosa was inspected for color, the presence of hyperemia and its intensity. The number of lesions, which were differentiated into small round (less than 1 mm), linear, and large lesions (more than 1mm) and the size of the area they covered were calculated. The average number of lesions per one animal in a group and the percentage of animals with ulcers were also calculated. Pauls Index (PI) was used as an integral indicator of the number of lesions and was calculated as follows: • PI = average number of lesions in a group x % of animals with lesions/100 [Pauls F., Wick A.M.,Mac. Key E.M. et al. An assau method for anti ulcer substances // Gastroenterology.- 1947. #8.- p.p.774 - 782]. Ulcer index UI was calculated as: UI = average lesion area size in the group x % of animals with lesions/100; gastroprotective activity GA1 was calculated as: GA1 = PI of the control group/PI of the experimental group, GA2 = UI of the control group/UI of the experimental group. The proposed drug was considered active when GA ≥ 2.

[4] = system: indomethacin-induced gastric ulcers; assay: Indomethacin-induced ulcer model, preventive treatment: gastric lesions; type: in vivo, male Wistar rats; parameters: key to GA1 (gastroprotective activity calculated for number of lesions): GA1 = PI of control group / PI of experimental group; key to GA2 (gastroprotective activity calculated for lesion size): GA2 = UI of control group / UI of experimental group; key to Ulcer Index: UI = average lesion area size x % of animals with lesions/100; Small round Size / Total Size / Large round Size / Linear Size / Lesion Size: unit not given here
Description: as §1, §2
Five groups of 10 animals per group were prepared for the experiment as described in Example 1.
In each series of experiments, the animals were divided into experimental and control groups at 10 animals per group. The animals in the experimental group were orally administered the proposed medication or a comparator drug, and the control animals were given distilled water in the same amount. • control group received distilled water per os; • experimental group 1 received 0.1 mkg/kg N-isovaleroyl-L-glutamyl-L-tryptophan; • experimental group 2 received 10 mkg/kg N-isovaleroyl-L-glutamyl-L-tryptophan; • experimental group 3 received 200 mkg/kg of the comparator drug Sucralfate.
The efficacy of the course of preventive treatment with the claimed composition was evaluated 24 hrs. post indomethacin administration. The study was conducted as in Example 1.

[5] = Indomethacin 30 mg/kg + 1 mkg/kg, treatment 5 days
[6] = 200 mg/kg + stress (so in the source)
[7] = 200 mg/kg, indomethacin-induced ulcers

In the case of “N-isovaleroyl-L-glutamyl-L-tryptophan [VGT preparation]”, the toxic reactions [1] is reported as “did not cause any toxic reactions”, the “Pauls index lower than that of the control animals” value ([2]; 0.1 mkg/kg, treatment after Indomethacin) is reported as 2 times and the “# Lesions” value [2, 5] is reported as 4.1 ± 0.8. The “% Animals with Ulcers” value [2, 5] was 100%, the “GA1 (gastroprotective activity calculated for number of lesions)” value [2, 5] was 2.0 and the “GA2 (gastroprotective activity calculated for lesion size)” value [2, 5] was 2.6. The “Lesion Size” value [2, 5] was 12.3 ± 3.5, the PI [2, 5] was 4.1 and the “Ulcer Index” value [2, 5] was 12.3. The “GA2 (gastroprotective activity calculated for lesion size)” value ([2]; Indomethacin 30 mg/kg + 10 mkg/kg, treatment 5 days) was 1.4.
For “aluminum complex of beta-D-fructofuranosyl-alpha-D-glucopyranoside octakis (hydrosulfate) [Sucralfate]”, the “# Lesions” value [3] was 8.8 ± 1.4, the “% Animals with Ulcers” value [3] was 90% and the “GA1 (gastroprotective activity calculated for number of lesions)” value [3] was 2.79. The “GA2 (gastroprotective activity calculated for lesion size)” value [3] was 2.99, the “Large round Amt.” value [3] was 3.9 ± 0.8 and the “Large round Size” value [3] was 2.4 ± 0.6. For the same substance, the “Lesion Size” value [3] was 7.5 ± 1.5, the “Linear Amt.” value [3] was 2.5 ± 0.6 and the “Linear Size” value [3] was 4.5 ± 1.0. For the same substance, the “Pauls Index” value [3] was 7.92, the “Small round Amt.” value [3] was 2.4 ± 0.7 and the “Small round Size” value [3] was 0.7 ± 0.2. The “Total Amt.” value [3] was 8.8 ± 1.4, the “Total Size” value [3] was 7.5 ± 1.5 and the “Ulcer Index” value [3] was 6.75. The “# Lesions” value [4, 6] was 5.4 ± 1.4, the “% Animals with Ulcers” value [4, 6] was 80% and the “GA1 (gastroprotective activity calculated for number of lesions)” value [4, 6] was 4.93. The “GA2 (gastroprotective activity calculated for lesion size)” value [4, 6] was 8.56, the “Lesion Size” value [4, 6] was 3.3 ± 1.2 and the PI [4, 6] was 4.32. The “Ulcer Index” value [4, 6] was 2.64, the “Large round Amount” value [4, 7] was 2.4 ± 0.8 and the “Large round Size” value [4, 7] was 1.0 ± 0.4. The “Linear Amount” value [4, 7] was 1.2 ± 0.4, the “Linear Size” value [4, 7] was 1.8 ± 0.9 and the “Small round Amount” value [4, 7] was 1.8 ± 0.6. The “Small round Size” value [4, 7] was 0.5 ± 0.2, the “Total Amount” value [4, 7] was 5.4 ± 1.4 and the “Total Size” value [4, 7] was 3.3 ± 1.2.

Reference: patent EP2601963B1, “N-ISOVALEROYL-L-GLUTAMYL-L-TRYPTOPHAN AS AN AGENT INHIBITING THE FORMATION OF ULCERS IN THE STOMACH AND THE DUODENUM” (Obshestvo S Ogranichennoj Otvetstvennostju "CytoNIR", priority 2010, dated 2015)
